One series in a line: in vivo. The note with it: for AUC(0-t): AUC0–t; for AUC(0-inf): AUC0–∞; for MRT inf: MRT0–∞. From the text: The validated UPLC-MS/MS method was used to measure atractylenolides I, II, and III, and atractyloside A simultaneously in rat plasma after oral administration of raw and wheat bran-processed Atractylodis Rhizoma at a dose of 3.75 g/kg. The integrated pharmacokinetics data were estimated by Drug and Statistics 3.0 (BioGuider Medicinal Technology Co. Ltd, Shanghai, China).
A UPLC system (Acquity, Waters, Milford, MA, USA) coupled with a mass spectrometer detector (XEVO-TQ-S, Waters) was used. The separation was performed on an Acquity UPLC BEH C18 column (Waters; 2.1 × 100 mm, 1.7 µm). The mobile phase consisted of acetonitrile (solution A) and ultrapure water with 0.1% methanoic acid (solution B). […] The mobile phase was delivered at a flow rate of 0.30 mL/min. The column and autosampler temperature were maintained at 40 and 10 °C, respectively. The injection volume was 2 µL and the eluent was detected by mass spectrometry with electrospray ionization (ESI) in positive scan mode. The optimized detector parameters were as follows: positive ESI with a capillary voltage of 3.0 kV; desolvation temperature of 400 °C; desolvation gas flow of 800 L/h, core gas flow of 150 L/h, and nebulizer gas flow of 7 bar. Selected multiple reaction monitoring (MRM), using the precursor to product ion combinations of m/z 233.3→187.2, 231.2→185.2, 249.2→231.2, 471.3→203.2, 151.9→110.16, was used to detect atractylenolides I, II, and III, atractyloside A, and the internal standard (IS), acetaminophen, respectively (Table 8).
Plasma samples were extracted by methanol precipitation. The plasma sample (200 µL) was spiked with IS solution (100 µL, 52 ng/mL), extracted with methanol (800 µL) by vortexing for 2 min, centrifuged at 17,108× g for 10 min, and then evaporated to dryness under a gentle stream of nitrogen. The residue was reconstituted in the mobile phase (100 µL), vortexed for 1 min, and centrifuged at 17,108× g for 10 min. Finally, the supernatant (3 µL) was injected into the UPLC-MS/MS system for analysis.
Ten rats were randomly divided into two groups (five per group). The two groups were orally administered raw Atractylodis Rhizoma at a dose of 3.75 g/kg (equal to 0.48, 0.6, 0.68, and 3.11 mg/kg of atractylenolides I, II, and III, and atractyloside A, respectively), and wheat bran-processed Atractylodis Rhizoma extract solution (equal to 0.46, 0.75, 0.56, and 3.03 mg/kg of atractylenolides I, II, and III, and atractyloside A, respectively). Plasma samples (0.3 mL) were collected in heparinized tubes from the orbital sinus at […], 0.25, 0.5, 1, 1.5,2, 3, 4, 6, 8, 10, and 12 h, and were then immediately centrifuged at 17,108× g for 10 min. The supernatant was transferred to clean test tubes and stored at −20 °C until analysis. Pharmacokinetic parameters, including the area under the blood concentration-time curve (AUC0–∞), elimination half-life (t1/2), apparent volume of distribution (Vd/F), and oral clearance (CL/F) were calculated by a noncompartmental method using Drug and Statistics 3.0 (Chinese Pharmacological Society, Shanghai, China). Other parameters were obtained directly from the experimental observations.
The pharmacokinetic parameters of atractylenolides I, II, and III, and atractyloside A were analyzed by using the one-way ANOVA test with SPSS 17.0 (SPSS Inc., Chicago, IL, USA) and linear regression analysis. The integrated concentrations at each time point for the four compounds were calculated based on the AUC weighting approach using equations (1)–(3). The weighting coefficient (Wj) and the total concentration of each compound (∑AUC0–∞) were calculated by: (1) w1=AUC0–∞/∑AUC0–∞ ∑AUC0–∞ = AUC0–∞ AT-I + AUC0–∞ AT-II + AUC0–∞ AT-III + AUC0–∞ atractyloside A(2)

Series [1] deals with ear edema induced by xylene. Further details: method as in PMID 19023804. Particulars: ear edema induced by xylene in mice; cited from earlier work.
Another series concerns HL-60 cells. The note with it: via Cu, Zn-superoxide dismutase inhibition; cited from earlier work.
For series [2], the system named is rhubarb-induced spleen deficiency. The arrangement: method as in PMID 24815219. Particulars: rhubarb-induced spleen deficiency in rats; cited from earlier work.
Series [3] in a line: Short-term stability in rat plasma at room temperature. It is filed as in vitro ADME. Particulars: for RE: room temperature stability; for 0 h Measured C / 4 h Measured C / 6 h Measured C: room temperature. As for the experimental part:
The stabilities of atractylenolides I, II, and III, and atractyloside A in rat plasma were evaluated at three different QC concentrations using six replicates under two conditions, including at 25 °C for 6 h, and three freeze and thaw cycles. Unextracted QC samples of the four compounds at low, medium, and high concentrations were kept at ambient temperature (25 °C) for 6 h to determine the short-term stability of the compounds in rat plasma. The samples were processed and analyzed, and then the concentrations were compared with the nominal values of the QC samples. The stabilities of the plasma samples after three freeze and thaw cycles were determined. In each cycle, the QC samples were stored at −20 °C for 24 h and thawed unassisted at room temperature. When completely thawed, the samples were refrozen within 24 h. The cycle was repeated three times and the samples were analyzed after the third cycle. Stability was assessed by comparing the mean concentration of the stored QC samples with the mean concentration of freshly prepared QC samples.

A short description of series [4]: Freeze-thaw stability in rat plasma. It counts as in vitro ADME. The note with it: for One Time Measured C / Two Time Measured C / Zero Time Measured C: freeze-thaw (−20 °C / room temperature); for RE: freeze-thaw stability. As for the experimental part:
[…] Unextracted QC samples of the four compounds at low, medium, and high concentrations were kept at ambient temperature (25 °C) for 6 h to determine the short-term stability of the compounds in rat plasma. The samples were processed and analyzed, and then the concentrations were compared with the nominal values of the QC samples. […] In each cycle, the QC samples were stored at −20 °C for 24 h and thawed unassisted at room temperature. When completely thawed, the samples were refrozen within 24 h. […] Stability was assessed by comparing the mean concentration of the stored QC samples with the mean concentration of freshly prepared QC samples.

Details of series [5]: method as in PMID 27019565. The note with it: oral raw vs wheat bran-processed Atractylodis Rhizoma; cited from earlier work.
Setting [6] is: rat, in vivo, po, 3.75 g/kg, rat plasma, oral raw Atractylodis Rhizoma 3.75 g/kg, mean ± SD, n = 5.
Setting [7] is: rat, in vivo, po, 3.75 g/kg, rat plasma, oral wheat bran-processed Atractylodis Rhizoma 3.75 g/kg, mean ± SD, n = 5.
Setting [8] is: high QC: added 140 (atractylenolide I), 200 (II, III), 172 (atractyloside A) ng/mL.
Where [9] appears, read: low QC: added 5.6 (atractylenolide I), 8 (II, III), 6.88 (atractyloside A) ng/mL.
Setting [10] is: medium QC: added 28 (atractylenolide I), 40 (II, III), 17.2 (atractyloside A) ng/mL.

A word on the Cmax: it is the highest concentration seen after dosing. In general, AUC(0-t) refers to the area under the concentration-time curve up to a stated or last time point. In general, AUC(0-inf) refers to total exposure, with the tail of the curve extrapolated. The term MRT inf denotes the average time that molecules of a dose stay in the body. The Tmax is the time at which the peak concentration occurs. As a reminder, the half-life is how long it takes for the measured level to halve. For `C=C1CCC[C@]2(C)C[C@]3(O)OC(=O)C(C)=C3C[C@@H]12` [Atractylenolide III], in “in vivo” (rat, in vivo, po, 3.75 g/kg), the “AUC0–t” value is 284.83 ± 32.94 * h·μg/L, the Cmax is recorded as 113.10 ± 19.04 ng/mL, the “MRT0–∞” value was 3.07 ± 0.31 h and the t1/2 was 1.81 ± 0.79 h. In “in vivo” (rat, in vivo, po, 3.75 g/kg), the AUC(0-t) came out at 231 ± 76.8 ng·h/mL, the AUC(0-inf) amounted to 233 ng·h/mL, the MRT inf amounted to 3.48 ± 0.29 h and the Tmax was 1 h. Also, the Cmax in the series “in vivo” (rat, in vivo, po, 3.75 g/kg, Cmax) stood at 87 ± 17 ng/mL. In addition, the half-life in the series “in vivo” (rat, in vivo, po, 3.75 g/kg, t1/2) is 1.56 ± 0.61 h. Besides, the anti-inflammatory activity result in series [1] is on record as “inhibition of ear edema”.

Turning to `C=C1CCC[C@]2(C)C=C3OC(=O)C(C)=C3C[C@@H]12` [Atractylenolide I], the “anticancer activity (apoptosis)” value with HL-60 cells is “inducing apoptosis”. For the same molecule, the anti-inflammatory activity entry in series [1] is reported as “inhibition of ear edema”. Also, the “treatment of spleen deficiency” value in series [2] is recorded as “can be used to treat rhubarb-induced spleen deficiency”.

Consider `CC(C)(OC1OC(CO)C(O)C(O)C1O)C1CCC(O)(CO)C2CC(=O)C(C)(O)C2C1` (stereo not drawn) [Atractyloside A], for which the “Cmax ratio, wheat bran-processed group vs raw group” value in “in vivo” (rat plasma, oral 3.75 g/kg) is 1.20 fold. Also, the AUC(0-t) in the series “in vivo” (setting [6]) turned out to be 138 ± 60.1 ng·h/mL; in “in vivo” (setting [7]) it was 307 ± 73.8 ng·h/mL. For the same molecule, the AUC(0-inf) worked out at 167 ng·h/mL in the series “in vivo” (rat, in vivo, po, 3.75 g/kg, Table 6, rat plasma, oral raw Atractylodis Rhizoma 3.75 g/kg); 325 ng·h/mL in the series “in vivo” (rat, in vivo, po, 3.75 g/kg, Table 6, rat plasma, oral wheat bran-processed Atractylodis Rhizoma 3.75 g/kg); 167 ± 90.1 ng·h/mL in the series “in vivo” (setting [6]); 325 ± 72.1 ng·h/mL in the series “in vivo” (setting [7]). Moreover, the Cmax in “in vivo” (rat, in vivo, po, 3.75 g/kg, Cmax, rat plasma, oral raw Atractylodis Rhizoma 3.75 g/kg, mean ± SD, n = 5) amounted to 57.8 ± 21.6 ng/mL; in “in vivo” (rat, in vivo, po, 3.75 g/kg, Cmax, rat plasma, oral wheat bran-processed Atractylodis Rhizoma 3.75 g/kg, mean ± SD, n = 5), 69.4 ± 8.29 ng/mL. Moreover, the MRT inf in the series “in vivo” (setting [6]) was found to be 6.05 ± 2.58 h; in “in vivo” (setting [7]), 4.87 ± 0.84 h. The Tmax worked out at 0.95 ± 0.11 h in the series “in vivo” (setting [6]) and 1.5 h in “in vivo” (setting [7]). In addition, the half-life in the series “in vivo” (rat, in vivo, po, 3.75 g/kg, t1/2, rat plasma, oral raw Atractylodis Rhizoma 3.75 g/kg, mean ± SD, n = 5) was 3.95 ± 2.22 h; in the series “in vivo” (rat, in vivo, po, 3.75 g/kg, t1/2, rat plasma, oral wheat bran-processed Atractylodis Rhizoma 3.75 g/kg, mean ± SD, n = 5) it was 2.55 ± 0.98 h. In addition, the RE is −0.17% in series [3] (setting [8]); −6.2% in series [3] (setting [9]); −0.85% in series [3] (setting [10]); −0.03% in series [4] (setting [8]); −8.96% in series [4] (setting [9]); 1.24% in series [4] (setting [10]). Also, the “0 h Measured C” value in series [3] (setting [8]) came to 172.31 ng/mL; in series [3] (setting [9]), 6.81 ng/mL; in series [3] (setting [10]) it was 17.16 ng/mL. Further, the “4 h Measured C” value in series [3] (setting [8]) came out at 171.50 ng/mL; in series [3] (setting [9]), 6.41 ng/mL; in series [3] (setting [10]), 17.02 ng/mL. Moreover, the “6 h Measured C” value in series [3] (setting [8]) is on record as 171.32 ng/mL; in series [3] (setting [9]), 6.14 ng/mL; in series [3] (setting [10]), 16.98 ng/mL. The “One Time Measured C” value in series [4] (setting [8]) is given as 171.48 ng/mL; in series [4] (setting [9]), 6.38 ng/mL; in series [4] (setting [10]) it was 17.36 ng/mL. In addition, the figures for the “Two Time Measured C” value in series [4] (setting [8]), in series [4] (setting [9]) and in series [4] (setting [10]) were 171.65 ng/mL, 6.02 ng/mL and 17.02 ng/mL, respectively. Also, the “Zero Time Measured C” value in series [4] (setting [8]) was 172.73 ng/mL; in series [4] (setting [9]) it was 6.39 ng/mL; in series [4] (setting [10]), 17.86 ng/mL.

In the case of `C/C=C/C#CC#C/C=C/c1ccco1` [atractylodin], in series [5], the “effect of stir-frying the rhizome with wheat bran on absorption” value is “promoted and accelerated the absorption”.

The values above are taken from paper PMC6320938 (Molecules, 2018).
